Experiments:
Test in all cases: Test D pre-/postemergence herbicide test
lambsquarters = assay type: in vivo, Chenopodium album; settings: for Plant response rating: Lambsquarters, scale 0 to 100; for Plant response rating, Lambsquarters: scale 0 to 100 (0 no effect, 100 complete control)
Text: (§1) Seeds of plant species selected from bluegrass (annual bluegrass, Poa annua), blackgrass (Alopecurus myosuroides), canarygrass (littleseed canarygrass, Phalaris minor), chickweed (common chickweed, Stellaria media), galium (catchweed bedstraw, Galium aparine), bromegrass, downy (downy bromegrass, Bromus tectorum), field poppy (Papaver rhoeas), field violet (Viola arvensis), foxtail, green (green foxtail, Setaria viridis), deadnettle (henbit deadnettle, Lamium amplexicaule), ryegrass, Italian (Italian ryegrass, Lolium multiflorum), kochia (Kochia scoparia), lambsquarters (Chenopodium album), oilseed rape (Brassica napus), pigweed (Amaranthus retroflexus), chamomile (scentless chamomile, Matricaria inodora), Russian thistle (Salsola kali), speedwell (bird's-eye speedwell, Veronica persica), barley, spring (spring barley, Hordeum vulgare), wheat, spring (spring wheat, Triticum aestivum), buckwheat, wild (wild buckwheat, Polygonum convolvulus), mustard, wild (wild mustard, Sinapis arvensis), oat, wild (wild oat, Avena fatua), radish, wild (wild radish, Raphanus raphanistrum), […]), barley, winter (winter barley, Hordeum vulgare), and wheat, winter (winter wheat, Triticum aestivum) were planted into a silt loam soil and treated preemergence with test chemicals formulated in a non-phytotoxic solvent mixture which included a surfactant. At the same time, these species were planted in pots containing Redi-Earth® planting medium (Scotts Company, 14111 Scottslawn Road, Marysville, Ohio 43041) comprising spaghnum peat moss, vermiculite, wetting agent and starter nutrients and treated with postemergence applications of the test chemicals formulated in the same manner. Plants ranged in height from 2 to 18 cm (1- to 4-leaf stage). Treated plants and controls were maintained in a controlled growth environment for 7 to 21 days after which time all species were compared to controls and visually evaluated. Plant response ratings, summarized in Table D, are based on a scale of 0 to 100 where 0 is no effect and 100 is complete control. A dash (-) response means no test result.

barley, spring = assay type: in vivo, Hordeum vulgare; settings: for Plant response rating: Barley, Spring, scale 0 to 100; for Plant response rating, Barley, Spring: scale 0 to 100 (0 no effect, 100 complete control)
Text: as §1

barley, winter = assay type: in vivo, Hordeum vulgare; settings: for Plant response rating: Barley, Winter, scale 0 to 100; for Plant response rating, Barley, Winter: scale 0 to 100 (0 no effect, 100 complete control)
Text: as §1

Russian thistle = assay type: in vivo, Salsola kali; settings: for Plant response rating: Postemergence, Russian Thistle, scale 0 to 100; for Plant response rating, Russian Thistle: Preemergence, scale 0 to 100 (0 no effect, 100 complete control)
Text: as §1

SMILES	Plant response rating (lambsquarters; Postemergence, 31 g ai/ha)	Plant response rating (lambsquarters; Postemergence, 62 g ai/ha)	Plant response rating (lambsquarters; Postemergence, 125 g ai/ha)	Plant response rating, Lambsquarters (lambsquarters; Preemergence, 62 g ai/ha)	Plant response rating, Lambsquarters (lambsquarters; Preemergence, 31 g ai/ha)	Plant response rating (lambsquarters; Preemergence, 125 g ai/ha)	Plant response rating (lambsquarters; Preemergence, 250 g ai/ha)	Plant response rating (barley, spring; Postemergence, 31 g ai/ha)	Plant response rating (barley, spring; Postemergence, 62 g ai/ha)	Plant response rating (barley, spring; Postemergence, 125 g ai/ha)	Plant response rating, Barley, Spring (barley, spring; Preemergence, 62 g ai/ha)	Plant response rating, Barley, Spring (barley, spring; Preemergence, 31 g ai/ha)	Plant response rating (barley, spring; Preemergence, 125 g ai/ha)	Plant response rating (barley, spring; Preemergence, 250 g ai/ha)	Plant response rating (barley, winter; Postemergence, 31 g ai/ha)	Plant response rating (barley, winter; Postemergence, 62 g ai/ha)	Plant response rating (barley, winter; Postemergence, 125 g ai/ha)	Plant response rating, Barley, Winter (barley, winter; Preemergence, 62 g ai/ha)	Plant response rating, Barley, Winter (barley, winter; Preemergence, 31 g ai/ha)	Plant response rating (barley, winter; Preemergence, 125 g ai/ha)	further results
O=C1NCC(c2ccc(Cl)c(F)c2)C1C(=O)Nc1cccc(F)c1F (centres unmarked) [Compound 52]	0	0	30	0	0	20	20	0	0	0	0	0	0	5	0	0	0	0	0	0	Plant response rating (lambsquarters; Postemergence, 16 g ai/ha): 0; Plant response rating (lambsquarters; Postemergence, 250 g ai/ha): 30; Plant response rating, Lambsquarters (lambsquarters; Preemergence, 16 g ai/ha): 0; Plant response rating (barley, spring; Postemergence, 16 g ai/ha): 0; Plant response rating (barley, spring; Postemergence, 250 g ai/ha): 0; Plant response rating, Barley, Spring (barley, spring; Preemergence, 16 g ai/ha): 0; Plant response rating (barley, winter; Postemergence, 16 g ai/ha): 0; Plant response rating (barley, winter; Postemergence, 250 g ai/ha): 0; Plant response rating, Barley, Winter (barley, winter; Preemergence, 16 g ai/ha): 0; Plant response rating (barley, winter; Preemergence, 250 g ai/ha): 25; Plant response rating (Russian thistle; 16 g ai/ha): 0; Plant response rating (Russian thistle; 31 g ai/ha): 0; Plant response rating (Russian thistle; 62 g ai/ha): 0; Plant response rating (Russian thistle; 125 g ai/ha): 0; Plant response rating (Russian thistle; 250 g ai/ha): 0; Plant response rating, Russian Thistle (Russian thistle; 62 g ai/ha): 0; Plant response rating, Russian Thistle (Russian thistle; 125 g ai/ha): 20; Plant response rating, Russian Thistle (Russian thistle; 16 g ai/ha): 0; Plant response rating, Russian Thistle (Russian thistle; 31 g ai/ha): 0; Plant response rating, Russian Thistle (Russian thistle; 250 g ai/ha): 30
O=C1NCC(c2ccc(F)c(C(F)(F)F)c2)C1C(=O)Nc1cccc(F)c1F (racemic) [Compound 77]				85	85	90	90				5	5	25	25				0	0	45	Plant response rating (barley, winter; Preemergence, 250 g ai/ha): 55
O=C1NCC(c2ccc(C(F)(F)F)cc2)C1C(=O)Nc1cccc(F)c1F (racemic) [Compound 202]	65	60	70	85	80	85	85	0	0	0	25	0	25	30	0	0	0	20	20	20	Plant response rating (lambsquarters; Postemergence, 250 g ai/ha): 75; Plant response rating (barley, spring; Postemergence, 250 g ai/ha): 5; Plant response rating (barley, winter; Postemergence, 250 g ai/ha): 0; Plant response rating (barley, winter; Preemergence, 250 g ai/ha): 25; Plant response rating (Russian thistle; 31 g ai/ha): 30; Plant response rating (Russian thistle; 62 g ai/ha): 30; Plant response rating (Russian thistle; 125 g ai/ha): 30; Plant response rating (Russian thistle; 250 g ai/ha): 35; Plant response rating, Russian Thistle (Russian thistle; 62 g ai/ha): 20; Plant response rating, Russian Thistle (Russian thistle; 125 g ai/ha): 35; Plant response rating, Russian Thistle (Russian thistle; 31 g ai/ha): 15; Plant response rating, Russian Thistle (Russian thistle; 250 g ai/ha): 40
O=C1NCC(c2cc(F)c(F)cc2F)C1C(=O)Nc1cccc(F)c1F (centres unmarked) [Compound 50]	5	5	20	0	0	0		0	0	0	0	0	0		0	0	0	0	0	0	Plant response rating (lambsquarters; Postemergence, 16 g ai/ha): 5; Plant response rating, Lambsquarters (lambsquarters; Preemergence, 16 g ai/ha): 0; Plant response rating (barley, spring; Postemergence, 16 g ai/ha): 0; Plant response rating, Barley, Spring (barley, spring; Preemergence, 16 g ai/ha): 0; Plant response rating (barley, winter; Postemergence, 16 g ai/ha): 0; Plant response rating, Barley, Winter (barley, winter; Preemergence, 16 g ai/ha): 0; Plant response rating (Russian thistle; 16 g ai/ha): 5; Plant response rating (Russian thistle; 31 g ai/ha): 0; Plant response rating (Russian thistle; 62 g ai/ha): 10; Plant response rating (Russian thistle; 125 g ai/ha): 5; Plant response rating, Russian Thistle (Russian thistle; 62 g ai/ha): 0; Plant response rating, Russian Thistle (Russian thistle; 125 g ai/ha): 0; Plant response rating, Russian Thistle (Russian thistle; 16 g ai/ha): 0; Plant response rating, Russian Thistle (Russian thistle; 31 g ai/ha): 0
O=C1NCC(c2ccc(C(F)(F)F)cc2)C1C(=O)Nc1ccccc1F (centres unmarked) [Compound 231]	55	50	70	80	45		90	0	0	0	5	0		35	0	0	0	0	0		Plant response rating (lambsquarters; Postemergence, 250 g ai/ha): 75; Plant response rating, Lambsquarters (lambsquarters; Preemergence, 125 g ai/ha): 90; Plant response rating (barley, spring; Postemergence, 250 g ai/ha): 0; Plant response rating, Barley, Spring (barley, spring; Preemergence, 125 g ai/ha): 5; Plant response rating (barley, winter; Postemergence, 250 g ai/ha): 0; Plant response rating, Barley, Winter (barley, winter; Preemergence, 125 g ai/ha): 0; Plant response rating (barley, winter; Preemergence, 250 g ai/ha): 20; Plant response rating (Russian thistle; 31 g ai/ha): 20; Plant response rating (Russian thistle; 62 g ai/ha): 35; Plant response rating (Russian thistle; 125 g ai/ha): 35; Plant response rating (Russian thistle; 250 g ai/ha): 35; Plant response rating, Russian Thistle (Russian thistle; 62 g ai/ha): 5; Plant response rating, Russian Thistle (Russian thistle; 125 g ai/ha): 15; Plant response rating, Russian Thistle (Russian thistle; 31 g ai/ha): 0; Plant response rating, Russian Thistle (Russian thistle; 250 g ai/ha): 30
O=C1NCC(c2ccc(C(F)(F)F)cc2)C1C(=O)Nc1cccc(F)c1F (centres unmarked) [Compound 80, N-(2,3-difluorophenyl)-2-oxo-4-[4-(trifluoromethyl)phenyl]-3-pyrrolidinecarboxamide]	45	45	40	80	85	90	90	0	0	0	10	0	15	30	0	0	0	5	0	15	Plant response rating (lambsquarters; Postemergence, 250 g ai/ha): 35; Plant response rating (barley, spring; Postemergence, 250 g ai/ha): 0; Plant response rating (barley, winter; Postemergence, 250 g ai/ha): 0; Plant response rating (barley, winter; Preemergence, 250 g ai/ha): 25; Plant response rating (Russian thistle; 31 g ai/ha): 20; Plant response rating (Russian thistle; 62 g ai/ha): 30; Plant response rating (Russian thistle; 125 g ai/ha): 25; Plant response rating (Russian thistle; 250 g ai/ha): 35

Source: patent publication US10294202B2, “Pyrrolidinones as herbicides” (FMC Corporation, priority 2013, dated 2019)
